One assay deals with MCF-7 cells. Kind of assay: SiNW-ECIS impedance and capacitance response of MCF-7 cells to antitubulin drugs. It is filed as cell-based, human. Particulars: MCF-7 on SiNW electrodes, PTX 0.1 nano-moles per liter; for normalized capacitance change versus control sample / normalized impedance change versus control sample: 2 hours (T1) after drug incubation; for normalized capacitance change versus control sample / normalized impedance change versus control sample / change in electrical impedance with respect to control sample / norm of capacitive changes, control sample more than drug value / change of norm in impedance of treated cells, T1 vs. T2: ABZ 2.1 nano-moles per liter; for change in electrical impedance with respect to control sample / norm of capacitive changes, control sample more than drug value: 6 hours (T2) after drug incubation. As to the method:
In this example, the diagnostic response of cells membrane to extremely low dose of antitubulin drugs is investigated. Initially, MCF-7 cell lines, isolated from grade I human breast tumors, were obtained from the National Cell Bank of Iran (Pasteur Institute). Then, cells were maintained in a CO2 incubator (37° C., 5% CO2) in RPMI-1640 medium supplemented with 5% fetal bovine serum, and 1% penicillin/streptomycin. The fresh medium was replaced every other day. Then, the cultured cells were dropped on the surface of the SiNW-ECIS, designed and fabricated pursuant to teachings of the present application. Prior to each experiment, cells were trypsinized to be detached from the substrate and resuspended on the SiNW surface. To minimize the effect of trypsinization, the procedure may last for less than 4 minutes at room temperature of about 20° C. The samples were held in an incubator for about 4 hours to achieve cells attachment on the SiNWs. Thereafter, the ABZ drug with low concentrations of about 2.1 nano-moles per liter and the PTX drug with low concentrations of about 0.1 nano-moles per liter were added to individual samples. Finally, the signal recording and biological assays were investigated about 2 hours and 6 hours after the drug treatment (6 hours and 10 hours after the beginning of culturing process).
Referring to FIGS. 12A-12G, comparative normalized diagrams of impedance (designated by ΔZ% and represented by solid black lines) and capacitance changes (designated by ΔC% and represented by dashed grey lines) are illustrated for MCF-7 cells seeded on SiNW electrodes after treating by 2.1 nano-moles per liter of ABZ and 0.1 nano-moles per liter of PTX. The time interval between the drug incubation and the signal extraction are 2 hours (designated by T1) and 6 hours (designated by T2). In addition, the same diagrams are plotted for control sample prepared with no drug treatment stage.
According to the method described in the present example, the samples were maintained in an incubator so that the signal extraction was repeated 10 hours after cells dropping (6 hours after drug incubation for treated samples) to monitor the time evolution of drug induced MT polymerization/depolymerization on bioelectrical response of the membrane.

For assay [1], the system named is tubulin assemblies of MCF-7 cells. Kind of assay: Confocal microscopy of tubulin assemblies of MCF-7 cells. In kind it is cell-based, human. Particulars: ABZ 2.1 nano-moles per liter, PTX 0.1 nano-moles per liter. As to the method:
In addition, an un-treated control sample was prepared as reference for comparison. Then, samples were washed with PBS and permeabilized with microtubule stabilizing buffer [80 mM PIPES-KOH (pH 6.8), 5 mM EGTA, and 1 mM MgCl2 containing 0.5% Triton X-100] for 5 min at room temperature before being fixed with chilled absolute methanol for 10 min at −20° C. Thereafter, the fixed cells were washed and incubated with monoclonal mouse anti-α-tubulin antibody (Sigma Co.) for 1 hour at room temperature followed by incubation with FITC-conjugated antimouse IgG antibody (Santa Cruz Biotechnology). The stained cells were mounted with Vectashield (Vector Laboratories, Burlingame, Calif.) and observed by confocal microscopy.

The mark [2] stands for this setting: between 2 hours (T1) and 6 hours (T2) after drug incubation.

With `CCCSc1ccc2nc(NC(=O)OC)[nH]c2c1` [ABZ, Albendazole], in the assay with MCF-7 cells, the “normalized capacitance change versus control sample” value was determined as 70%; the “normalized impedance change versus control sample” value is given as 25%; the “change in electrical impedance with respect to control sample” value is reported as “about 90%”; the “norm of capacitive changes, control sample more than drug value” was “about 90%”. In addition, the “change of norm in impedance of treated cells, T1 vs. T2” value in the assay with MCF-7 cells (setting [2]) is “about 60%”. Also, in assay [1] (MCF-7, 2 hours after treatment), the “spindle / microtubule appearance in confocal image” value (shortened to “spindle / microtubule appearance”) was “abnormally reduced numbers of spindles or monopolar (monoaster) spindles”. Also, in assay [1] (MCF-7, 6 hours after treatment), the “spindle / microtubule appearance” value is “still the monoastered MTs are observable”.
`CC(=O)O[C@H]1C(=O)[C@@]2(C)[C@H]([C@H](OC(=O)c3ccccc3)[C@]3(O)C[C@H](OC(=O)[C@H](O)[C@@H](NC(=O)c4ccccc4)c4ccccc4)C(C)=C1C3(C)C)[C@]1(OC(C)=O)CO[C@@H]1C[C@@H]2O` [PTX, Paclitaxel]: in the assay with MCF-7 cells, the “normalized capacitance change versus control sample” value is listed as “about 60%”; the “normalized impedance change versus control sample” value is recorded as “about 50%”; the “change in electrical impedance with respect to control sample” value is given as “about 30%”; the “norm of capacitive changes, control sample more than drug value” is approximately 75%. Moreover, in the assay on MCF-7 cells (setting [2]), the “change of norm in impedance of treated cells, T1 vs. T2” value is recorded as 15% and the “time dependent variation in capacitive behavior, T1 vs. T2” value is “about 85%”. For the same molecule, the “spindle / microtubule appearance” value in assay [1] (MCF-7, 2 hours after treatment) is “aggregated spindles”. For the same molecule, the “spindle / microtubule appearance” value in assay [1] (MCF-7, 6 hours after treatment) is “increased aggregation in MT spindles is noticeable”.
